Literature values in patent US6348193B1, “Method for inhibiting pathogenic fungi and bacteria in plants using Pseudomonas aureofaciens” (Board of Trustees of Michigan State University, priority 1999, dated 2002).

What was measured:
Magnaporthe poae = settings: in vivo
G. graminis var. tritici = settings: in the soil atmosphere

Compound	Management of summer patch disease of turfgrass (Magnaporthe poae)	Concentration inhibitory to G. graminis var. tritici (G. graminis var. tritici)
faeriefungin	equal to that of the chemical fungicide fenarimol	–
C=C [Ethylene, ethylene]	–	less than 5 parts-per-million
